Source: publication PMC3548994 (Biochemistry, 2012)
Non-standard residues stand in square brackets, D forms with d. No end group written: not given here. pT = C[C@@H](OP(=O)(O)O)[C@H](N)C(=O)O

What was measured:
[1] = system: Pin1-WW domain binding surface; assay: HSQC NMR of WW53 and mutants versus WW50
[2] = target: Pin1-WW domain (WW50, Pin1 residues 1-50) (Homo sapiens, UniProt Q13526); assay: NMR titration of ^15N-WW50 with phosphate or HEPES; assay type: binding; details: at 10 mM buffer anion and 1 mM WW domain, calculated from KD
[3] = target: Pin1-WW domain construct WW50 (Pin1 residues 1-50) (UniProt Q13526 1-50, 15N-labelled (uniform) in the NMR titrations); assay: NMR titration
[4] = C-terminal mutants of WW53 compared with WW53 and WW50

Row | Molecule | HSQC peak shifts of key binding surface residues versus WW53 [1, 4] | WW domain bound to buffer anion [2] | further results
1 | WW53 E51A: WW53 construct (Pin1 residues 1-53) with E51A mutation (MADEEKLPPGWEKRMSRSSGRVYYFNHITNASQWERPSGNSSSGGKNGQGAPA; residues 1-53 (WW domain); UniProt Q13526 1-53, looked up, variant E51A) | progressive peak shifts for key binding surface residues |  | HSQC peak shifts of key binding surface residues versus WW53 ([1]; C-terminal mutants of WW53 compared with WW53 and WW50, listed as E51A): progressively shifted some key binding surface peaks toward their WW50 positions
2 | O=S(=O)(O)CCN1CCN(CCO)CC1 [HEPES] |  | 6% | 
3 | O=P(O)(O)O [phosphate, sodium phosphate] |  | 15% | 
4 | WW53 E51A/P52A: WW53 construct (Pin1 residues 1-53) with E51A/P52A mutations (MADEEKLPPGWEKRMSRSSGRVYYFNHITNASQWERPSGNSSSGGKNGQGAAA; residues 1-53 (WW domain); UniProt Q13526 1-53, looked up, variant E51A P52A) | progressive peak shifts for key binding surface residues |  | 
5 | GVVEVDAAV[pT]PEERHLSKMQQNGY (peptide, UniProt P05067-4 659-682, looked up) [phosphopeptide representing APP residues 659-682 phosphorylated at T668 (pAPP659-682)] |  |  | koff [3]: 2040 s⁻¹; kon [3]: 9.1e+07 M⁻¹ s⁻¹
